Reference: paper PMC5902632 (2018)
Numbered stars: 1 amine (or outer) side, 2 acyl side, 3 side chain; on linkers, the order of the positions; unused ones are H or OH. Bridge positions count the residues as written; N and C are the ends. Square brackets hold non-standard residues; d marks the D form. Peptide text beside a SMILES is read from it. I, II: the chains in the order shown. Actinocin(9to1) = Cc1c2oc3c(C)ccc(C(=O)[*:1])c3nc-2c(C(=O)[*:2])c(N)c1=O; NMeV = CN[C@H](C(=O)O)C(C)C; Sar = CNCC(=O)O

Key:
[1] = tested on: E12DNA-HG (DNA, duplex) ACGCACGT/ACGTGCGT; experiment: NMR (2D NOESY and HSQC); conditions: 125 mM NaCl; 15 mM sodium phosphate, 0.1 mM EDTA, pH 5.3
[2] = tested on: E12DNA-WC (DNA, duplex) ACACGTAT/ATACGTGT; experiment: NMR (2D HSQC chemical shift perturbation); conditions: 125 mM NaCl; 15 mM sodium phosphate, 0.1 mM EDTA, pH 5.3 or 6.8; room temperature
[3] = tested on: E12DNA (DNA, duplex) ACACGTACGTGT; experiment: NMR (HSQC chemical shift perturbation, relaxation dispersion); conditions: 125 mM NaCl; 15 mM sodium phosphate, 0.1 mM EDTA, pH 5.3 or 6.8, 8% D2O; slow exchange
[4] = tested on: AcDNA (DNA, duplex) AGATATGCATATCT; experiment: NMR (HSQC, NOESY, relaxation dispersion); conditions: 125 mM NaCl; 15 mM sodium phosphate, 0.1 mM EDTA, pH 5.3 or 6.8, 8% D2O; two orientations of the chromophore

Row | Structure (SMILES) | binding [1] | binding [2] | binding [3] | binding [4]
1 | CSC1SC[C@H]2C(=O)N(C)[C@@H](C(C)C)C(=O)OC[C@@H](NC(=O)c3cnc4ccccc4n3)C(=O)N[C@@H](C)C(=O)N(C)[C@@H]1C(=O)N(C)[C@@H](C(C)C)C(=O)OC[C@@H](NC(=O)c1cnc3ccccc3n1)C(=O)N[C@@H](C)C(=O)N2C (stereo partly shown) | yes | yes | yes | –
2 | Cc1c2oc3c(C)ccc(C(=O)N[C@@H]4C(=O)N[C@H](C(C)C)C(=O)N5CCC[C@H]5C(=O)N(C)CC(=O)N(C)[C@@H](C(C)C)C(=O)O[C@@H]4C)c3nc-2c(C(=O)N[C@@H]2C(=O)N[C@H](C(C)C)C(=O)N3CCC[C@H]3C(=O)N(C)CC(=O)N(C)[C@@H](C(C)C)C(=O)O[C@@H]2C)c(N)c1=O (I: T[dV]P[Sar][NMeV] / II: T[dV]P[Sar][NMeV]; ester I:1-I:C, II:1-II:C; linker I:N-II:N via Actinocin(9to1)) | – | – | – | yes
